Data from patent publication US20230108699A1, “HEART EXTRACELLULAR MATRIX-DERIVED SCAFFOLD FOR CULTURE AND TRANSPLANTATION OF CARDIAC ORGANOID AND METHOD OF PREPARING THE SAME” (CELLARTGEN INC., priority 2020, published 2023).

Test system: human cardiac organoid cultured in the HEM hydrogel
Experiment: Drug reactivity of HEM scaffold-based human cardiac organoid by calcium imaging
Format: cell-based
Conditions: 7th day of culture, HEM hydrogel 4 mg/ml
Method: In order to check the reactivity of the human cardiac organoid cultured in the HEM hydrogel (4 mg/ml) to drugs, treatment with two representative drugs (isoproterenol and propranolol) affecting the heart rate was performed on the 7th day of culture, and reaction of the organoid thereto was checked through calcium imaging.

| SMILES | beating of cardiac organoid (isoproterenol 1 μM) | beating of cardiac organoid (propranolol 10 μM) |
| --- | --- | --- |
| CC(C)NCC(O)c1ccc(O)c(O)c1 (centres unmarked) [isoproterenol] | increased |  |
| CC(C)NCC(O)COc1cccc2ccccc12 (centres unmarked) [propranolol] |  | decreased |
